What all share (type): cell-based
In test [1] the test system is Myostatin. In words: Reporter gene assay for myostatin signaling in HepG2 cell line, Evaluation Procedure (1), myostatin inhibition. The conditions noted are these: Method A; GDF-11 IC50 versus Myostatin IC50. The essentials: (§1)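 HepG2 cells transfected with pGL3(CAGA)12-luciferase reporter, serum-starved in 0.1% BSA medium, then stimulated with myostatin or GDF-11 plus 4-fold peptide dilutions (0.006–100 nmol/L for myostatin, 0.12–2000 nmol/L for GDF-11) for 20–24 h at 37 °C. Luminescence read with One-Glo; IC50 calculated.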
A general note: Reporter assays use an easily measured gene product as a stand-in for the process of interest.

The target in test [2] is T1, Myostatin (Homo sapiens, UniProt O14793).
T1 construct: active myostatin (also called mature myostatin) is a homodimer consisting of two C-terminal growth factor domains; purchased R&D systems 788-G8/CF
T1 sequence (O14793 267-375): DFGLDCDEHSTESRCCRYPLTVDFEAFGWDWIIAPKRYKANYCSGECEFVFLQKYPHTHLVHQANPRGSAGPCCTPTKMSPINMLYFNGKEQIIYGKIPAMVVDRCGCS
The description is as above. To be noted: Method A: Myostatin 10 ng/mL; read-out: IC50 (Luciferase) Myostatin HepG2. Put shortly:
as §1

In the next test the target is T2, GDF-11 (Homo sapiens, UniProt O95390).
T2 construct: purchased R&D systems 1958-GD-G8/CF
T2 sequence (O95390 299-407): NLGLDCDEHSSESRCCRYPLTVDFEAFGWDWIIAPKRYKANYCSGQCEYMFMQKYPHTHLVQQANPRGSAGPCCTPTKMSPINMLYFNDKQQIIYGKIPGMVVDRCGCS
In words: Reporter gene assay for myostatin signaling in HepG2 cell line, Evaluation Procedure (1), GDF-11 inhibition. To be noted: Method A: GDF-11 10 ng/mL; read-out: IC50 (Luciferase) GDF-11 HepG2. The essentials: as §1

In general, IC50 refers to the concentration at which inhibition is half-maximal.

Starred links: 1 amine or outer side, 2 acyl side, 3 side chain; linkers in the order of their positions; H or OH if unused. Positions of bridges follow the written chain, without caps; N, C: chain ends. Non-standard residues stand in square brackets, D forms with d. Residues, ends and D or L forms follow the SMILES beside them. *: point of attachment. Phe(3-OCH2COOH) = N[C@@H](Cc1cccc(OCC(=O)O)c1)C(=O)O; Phe(4-COOH) = N[C@@H](Cc1ccc(C(=O)O)cc1)C(=O)O; Trp(7-aza) = N[C@@H](Cc1c[nH]c2ncccc12)C(=O)O; Gly(N(CH2)3COOH) = O=C(O)CCCNCC(=O)O; X1 = CCCCCCC[C@H](N[*:1])C(=O)[*:2]; NMeF = CN[C@@H](Cc1ccccc1)C(=O)O; Carboxymethyl = O=C(O)C*; NMeA = CN[C@@H](C)C(=O)O; Sar = CNCC(=O)O

Compound `CCCCCCC[C@@H]1NC(=O)[C@H](Cc2ccccc2)N(C)C(=O)[C@H](CCCNC(=N)N)NC(=O)[C@H](Cc2ccc(OCC(=O)O)cc2)NC(=O)[C@H](Cc2cccc(OCC(=O)O)c2)NC(=O)[C@H](C)N(C)C(=O)[C@H]([C@@H](C)CC)NC(=O)[C@H](Cc2ccccc2)N(C)C(=O)[C@H](Cc2ccc(O)cc2)NC(=O)[C@H](Cc2c[nH]c3ncccc23)NC(=O)[C@H](C)NC(=O)CN(CCCC(=O)O)C(=O)CSC[C@H](C(=O)O)NC(=O)[C@H](Cc2ccccc2)N(C)C(=O)[C@H](C)N(C)C1=O` [Myostatin_99_v153] ({CH2CO}-[Gly(N(CH2)3COOH)]A[Trp(7-aza)]Y[NMeF]I[NMeA][Phe(3-OCH2COOH)]Y(Carboxymethyl)R[NMeF][X1][NMeA][NMeF][dC]-OH; thioether N-15) returned a Selectivity in the test with Myostatin [1] of 222. Moreover, the IC50 at Myostatin [2] was found to be 1.2 nM; at GDF-11, 267 nM.

As for `CC[C@H](C)[C@@H]1NC(=O)[C@H](Cc2ccccc2)N(C)C(=O)[C@H](Cc2ccc(O)cc2)NC(=O)[C@H](Cc2c[nH]c3ccccc23)NC(=O)[C@H](C)NC(=O)CN(CCCC(=O)O)C(=O)CSC[C@H](C(=O)O)NC(=O)[C@H](Cc2ccccc2)N(C)C(=O)[C@H](C)N(C)C(=O)[C@H](CC(C)C)NC(=O)[C@H](Cc2ccccc2)N(C)C(=O)[C@H](CCCNC(=N)N)NC(=O)[C@H](Cc2ccc(C(=O)O)cc2)NC(=O)[C@H](Cc2cccc(OCC(=O)O)c2)NC(=O)CN(C)C1=O` [Myostatin_99_v156] ({CH2CO}-[Gly(N(CH2)3COOH)]AWY[NMeF]I[Sar][Phe(3-OCH2COOH)][Phe(4-COOH)]R[NMeF]L[NMeA][NMeF][dC]-OH; thioether N-15), the Selectivity in the test with Myostatin [1] worked out at 70. In addition, the IC50 on Myostatin [2] was 69 nM; on GDF-11, 4810 nM.

For the compound `CC[C@H](C)[C@@H]1NC(=O)[C@H](Cc2ccccc2)N(C)C(=O)[C@H](Cc2ccc(O)cc2)NC(=O)[C@H](Cc2c[nH]c3ccccc23)NC(=O)[C@H](CO)NC(=O)CN(CCCC(=O)O)C(=O)CSC[C@H](C(=O)O)NC(=O)[C@H](Cc2ccccc2)N(C)C(=O)[C@H](C)N(C)C(=O)[C@H](CC(C)C)NC(=O)[C@H](Cc2ccccc2)N(C)C(=O)[C@H](CCCNC(=N)N)NC(=O)[C@H](Cc2ccc(C(=O)O)cc2)NC(=O)[C@H](Cc2cccc(OCC(=O)O)c2)NC(=O)[C@H](C)N(C)C1=O` [Myostatin_99_v158] ({CH2CO}-[Gly(N(CH2)3COOH)]SWY[NMeF]I[NMeA][Phe(3-OCH2COOH)][Phe(4-COOH)]R[NMeF]L[NMeA][NMeF][dC]-OH; thioether N-15), the Selectivity in the test on Myostatin [1] is reported as 104. The results for the IC50 on Myostatin [2] and on GDF-11 were 62 nM and 6460 nM, respectively.

Take `CCCCCCC[C@@H]1NC(=O)[C@H](Cc2ccccc2)N(C)C(=O)[C@H](CCCNC(=N)N)NC(=O)[C@H](Cc2ccc(C(=O)O)cc2)NC(=O)[C@H](Cc2cccc(OCC(=O)O)c2)NC(=O)CN(C)C(=O)[C@H]([C@@H](C)CC)NC(=O)[C@H](Cc2ccccc2)N(C)C(=O)[C@H](Cc2ccc(O)cc2)NC(=O)[C@H](Cc2c[nH]c3ccccc23)NC(=O)[C@H](CO)NC(=O)[C@H](C)NC(=O)CSC[C@H](C(=O)O)NC(=O)[C@H](Cc2ccccc2)N(C)C(=O)[C@H](C)N(C)C1=O` [Myostatin_99_v159] ({CH2CO}-ASWY[NMeF]I[Sar][Phe(3-OCH2COOH)][Phe(4-COOH)]R[NMeF][X1][NMeA][NMeF][dC]-OH; thioether N-15): the Selectivity in the test with Myostatin [1] is recorded as 104. For the same compound, the IC50 was 3.9 nM at Myostatin [2] and 404 nM on GDF-11.

Compound `CCCCCCC[C@@H]1NC(=O)[C@H](Cc2ccccc2)N(C)C(=O)[C@H](CCCNC(=N)N)NC(=O)[C@H](Cc2ccc(C(=O)O)cc2)NC(=O)[C@H](Cc2cccc(OCC(=O)O)c2)NC(=O)CN(C)C(=O)[C@H]([C@@H](C)CC)NC(=O)[C@H](Cc2ccccc2)N(C)C(=O)[C@H](Cc2ccc(O)cc2)NC(=O)[C@H](Cc2c[nH]c3ncccc23)NC(=O)[C@H](CO)NC(=O)[C@H](C)NC(=O)CSC[C@H](C(=O)O)NC(=O)[C@H](Cc2ccccc2)N(C)C(=O)[C@H](C)N(C)C1=O` [Myostatin_99_v160] ({CH2CO}-AS[Trp(7-aza)]Y[NMeF]I[Sar][Phe(3-OCH2COOH)][Phe(4-COOH)]R[NMeF][X1][NMeA][NMeF][dC]-OH; thioether N-15) came in with a Selectivity in the test with Myostatin [1] of 109. In addition, the half-inhibitory concentration (IC50) on Myostatin [2] amounted to 3.2 nM; on GDF-11, 350 nM.

In turn, `CCCCCCC[C@@H]1NC(=O)[C@H](Cc2ccccc2)N(C)C(=O)[C@H](CCCNC(=N)N)NC(=O)[C@H](Cc2ccc(C(=O)O)cc2)NC(=O)[C@H](Cc2cccc(OCC(=O)O)c2)NC(=O)CN(C)C(=O)[C@H]([C@@H](C)CC)NC(=O)[C@H](Cc2ccccc2)N(C)C(=O)[C@H](Cc2ccc(O)cc2)NC(=O)[C@H](Cc2c[nH]c3ccccc23)NC(=O)[C@H](CO)NC(=O)CN(CCCC(=O)O)C(=O)CSC[C@H](C(=O)O)NC(=O)[C@H](Cc2ccccc2)N(C)C(=O)[C@H](C)N(C)C1=O` [Myostatin_99_v161] ({CH2CO}-[Gly(N(CH2)3COOH)]SWY[NMeF]I[Sar][Phe(3-OCH2COOH)][Phe(4-COOH)]R[NMeF][X1][NMeA][NMeF][dC]-OH; thioether N-15) came in with a Selectivity in the test on Myostatin [1] of 151. The IC50 at Myostatin [2] came to 8.2 nM; on GDF-11 it was 1240 nM.

Compound `CCCCCCC[C@@H]1NC(=O)[C@H](Cc2ccccc2)N(C)C(=O)[C@H](CCCNC(=N)N)NC(=O)[C@H](Cc2ccc(C(=O)O)cc2)NC(=O)[C@H](Cc2cccc(OCC(=O)O)c2)NC(=O)CN(C)C(=O)[C@H]([C@@H](C)CC)NC(=O)[C@H](Cc2ccccc2)N(C)C(=O)[C@H](Cc2ccc(O)cc2)NC(=O)[C@H](Cc2c[nH]c3ncccc23)NC(=O)[C@H](CO)NC(=O)CN(CCCC(=O)O)C(=O)CSC[C@H](C(=O)O)NC(=O)[C@H](Cc2ccccc2)N(C)C(=O)[C@H](C)N(C)C1=O` [Myostatin_99_v162] ({CH2CO}-[Gly(N(CH2)3COOH)]S[Trp(7-aza)]Y[NMeF]I[Sar][Phe(3-OCH2COOH)][Phe(4-COOH)]R[NMeF][X1][NMeA][NMeF][dC]-OH; thioether N-15) showed a Selectivity in the test with Myostatin [1] of 15. Also, the IC50 was determined as 6.1 nM on Myostatin [2] and 90 nM at GDF-11.

On to `CCCCCCC[C@@H]1NC(=O)[C@H](Cc2ccccc2)N(C)C(=O)[C@H](CCCNC(=N)N)NC(=O)[C@H](Cc2ccc(C(=O)O)cc2)NC(=O)[C@H](Cc2cccc(OCC(=O)O)c2)NC(=O)[C@H](C)N(C)C(=O)[C@H]([C@@H](C)CC)NC(=O)[C@H](Cc2ccccc2)N(C)C(=O)[C@H](Cc2ccc(O)cc2)NC(=O)[C@H](Cc2c[nH]c3ccccc23)NC(=O)[C@H](CO)NC(=O)CN(CCCC(=O)O)C(=O)CSC[C@H](C(=O)O)NC(=O)[C@H](Cc2ccccc2)N(C)C(=O)[C@H](C)N(C)C1=O` [Myostatin_99_v163] ({CH2CO}-[Gly(N(CH2)3COOH)]SWY[NMeF]I[NMeA][Phe(3-OCH2COOH)][Phe(4-COOH)]R[NMeF][X1][NMeA][NMeF][dC]-OH; thioether N-15), for which the Selectivity in the test on Myostatin [1] turned out to be 279. Also, the IC50 on Myostatin [2] was 3.6 nM; at GDF-11, 1000 nM.

Compound `CCCCCCC[C@@H]1NC(=O)[C@H](Cc2ccccc2)N(C)C(=O)[C@H](CCCNC(=N)N)NC(=O)[C@H](Cc2ccc(C(=O)O)cc2)NC(=O)[C@H](Cc2cccc(OCC(=O)O)c2)NC(=O)[C@H](C)N(C)C(=O)[C@H]([C@@H](C)CC)NC(=O)[C@H](Cc2ccccc2)N(C)C(=O)[C@H](Cc2ccc(O)cc2)NC(=O)[C@H](Cc2c[nH]c3ncccc23)NC(=O)[C@H](CO)NC(=O)CN(CCCC(=O)O)C(=O)CSC[C@H](C(=O)O)NC(=O)[C@H](Cc2ccccc2)N(C)C(=O)[C@H](C)N(C)C1=O` [Myostatin_99_v164] ({CH2CO}-[Gly(N(CH2)3COOH)]S[Trp(7-aza)]Y[NMeF]I[NMeA][Phe(3-OCH2COOH)][Phe(4-COOH)]R[NMeF][X1][NMeA][NMeF][dC]-OH; thioether N-15) gave a Selectivity in the test on Myostatin [1] of 320. The IC50 came out at 4.2 nM on Myostatin [2] and 1340 nM on GDF-11.

With `CCCCCCC[C@@H]1NC(=O)[C@H](Cc2ccccc2)N(C)C(=O)[C@H](CCCNC(=N)N)NC(=O)[C@H](Cc2ccc(C(=O)O)cc2)NC(=O)[C@H](Cc2cccc(OCC(=O)O)c2)NC(=O)CN(C)C(=O)[C@H]([C@@H](C)CC)NC(=O)[C@H](Cc2ccccc2)N(C)C(=O)[C@H](Cc2ccc(O)cc2)NC(=O)[C@H](Cc2c[nH]c3ccccc23)NC(=O)[C@H](C)NC(=O)CN(CCCC(=O)O)C(=O)CSC[C@H](C(=O)O)NC(=O)[C@H](Cc2ccccc2)N(C)C(=O)[C@H](C)N(C)C1=O` [Myostatin_99_v165] ({CH2CO}-[Gly(N(CH2)3COOH)]AWY[NMeF]I[Sar][Phe(3-OCH2COOH)][Phe(4-COOH)]R[NMeF][X1][NMeA][NMeF][dC]-OH; thioether N-15), in the test on Myostatin [1], the Selectivity turned out to be 89. In addition, the IC50 at Myostatin [2] stood at 14 nM; on GDF-11, 1240 nM.

The compound `CCCCCCC[C@@H]1NC(=O)[C@H](Cc2ccccc2)N(C)C(=O)[C@H](CCCNC(=N)N)NC(=O)[C@H](Cc2ccc(C(=O)O)cc2)NC(=O)[C@H](Cc2cccc(OCC(=O)O)c2)NC(=O)CN(C)C(=O)[C@H]([C@@H](C)CC)NC(=O)[C@H](Cc2ccccc2)N(C)C(=O)[C@H](Cc2ccc(O)cc2)NC(=O)[C@H](Cc2c[nH]c3ncccc23)NC(=O)[C@H](C)NC(=O)CN(CCCC(=O)O)C(=O)CSC[C@H](C(=O)O)NC(=O)[C@H](Cc2ccccc2)N(C)C(=O)[C@H](C)N(C)C1=O` [Myostatin_99_v166] ({CH2CO}-[Gly(N(CH2)3COOH)]A[Trp(7-aza)]Y[NMeF]I[Sar][Phe(3-OCH2COOH)][Phe(4-COOH)]R[NMeF][X1][NMeA][NMeF][dC]-OH; thioether N-15) registered a Selectivity in the test with Myostatin [1] of 272. Besides, the IC50 stood at 3.5 nM on Myostatin [2] and 951 nM at GDF-11.

For the origin of these results see EP4786487A1, “PEPTIDE” (Peptidream Inc, priority 2023, dated 2025).
